Reference: paper PMC9986306, “Beyond CBD: Inhibitory effects of lesser studied phytocannabinoids on human voltage-gated sodium channels” (Frontiers in Physiology, 2023)
Marks after values point to notes of the source that are not given here.

Columns and labels:
[1] = molecular target: T1, human NaV1.7 channel (SCN9A, CHO cells) (Homo sapiens, UniProt Q15858); assay: Planar patch-clamp, biophysical properties (activation, SSFI, recovery from SSFI); format: cell-based; settings: change vs vehicle DMSO at IC50 concentration (CBD 11.9 μM, CBGA 16.4 μM, CBDVA 60 μM)
T1 construct: expressed in transfected cells
Experimental: (§1) HEK293T cells stably expressing SCN1A or SCN2A and CHO cells stably expressing SCN8A or SCN9A were maintained as previously described ([Richards et al., 2018]; [Milligan et al., 2022]).
(§2) Patch-clamp recordings were made using a Patchliner® (Nanion Technologies, Munich, Germany) in the whole-cell configuration as previously described ([Richards et al., 2018]; [Milligan et al., 2022]). Briefly, cells were prepared in suspension at a density of 1 × 10^6-5 × 10^7 cells/mL. The external recording solution comprised (in mM): 140 NaCl, 4 KCl, 1 MgCl2, 2 CaCl2, 5 D-glucose, 10 HEPES, pH 7.4 with NaOH, ∼295 mOsm. The internal recording solution comprised (in mM): 50 CsCl, 60 CsF, 10 NaCl, 20 EGTA, 10 HEPES, pH 7.2 with CsOH, ∼285 mOsm. Medium single-hole planar NPC-16 chips with an average resistance of ∼2.5 MΩ were used. Chip and whole-cell capacitance were fully compensated, and 50% series resistance compensation applied. Recordings were acquired at 50 kHz with the low pass filter set to 10 kHz in PATCHMASTER (HEKA Instruments, NY, United States) and performed at 27°C. Offline analysis was performed using Microsoft Excel, MatLab R2019a (MathWorks) and GraphPad Prism 8 (Molecular Devices).
(§3) Voltage protocols were used, as previously described ([Richards et al., 2018]). Briefly, to study the voltage-dependence of activation, cells were held at −120 mV and depolarized to test potentials, in 5 mV increments, between −120 mV and +50 mV for 100 ms. To study steady-state fast inactivation, cells were held at conditioning pre-pulse potentials ranging from −120 mV to +30 mV in 5 mV increments from a holding potential of −120 mV and a test pulse at 5 mV for 20 ms. Recovery from fast inactivation was studied by pre-pulsing the cells to 0 mV from a holding potential of −120 mV for 50 ms, to fully inactivate channels. The voltage was then stepped back to the holding potential for variable interpulse intervals (ipi from 0 to 39 ms in 3 ms increments). To test channel availability, the voltage was stepped to 0 mV for 50 ms.
(§4) To examine the voltage-dependence of activation, normalized current-voltage (I-V) relationships were converted to conductance (G) using the following equation: G = I/(V−V r ) where Vr is the reversal potential for Na^+. The voltage-dependence of conductance and availability were normalized and fitted to a Boltzmann equation: G = 1/(1 + exp [(V−V 0.5)/a]), where a is the slope of the half-maximum, V is the potential of the given pulse, and V 0.5 is the potential for the half-maximal activation/inactivation. The time course of inactivation was fitted to a single exponential function I/Imax = I0+A*exp (-t-t0/τ)+C, where I0 is the non-inactivating component, Imax is the peak current, t is time, and A is the component for the time constant τ. Time constants were plotted against voltage and the data fitted with a decaying exponential equation Y = span*exp (−K*x)+plateau, where span is the starting point of the curve, K is the decay factor, plateau is the value the curve decays to, and x is time. To measure recovery from inactivation, normalized currents were plotted against ipi and data fitted with equation I/I max = 1-exp/(rc + x), where I max is maximal current; rc recovery rate constant; x is time. Peak current (I) was plotted as fractional recovery against the recovery period by normalizing to the maximum current (Imax) during the conditioning potentials.

[2] = molecular target: T2, human NaV1.6 channel (SCN8A, CHO cells) (Homo sapiens, UniProt Q9UQD0); assay: as above; format: cell-based; settings: change vs vehicle DMSO at IC50 concentration (CBD 16.6 μM, CBGA 12.0 μM, CBDVA 24.1 μM)
T2 construct: expressed in transfected cells
Experimental: as §1, §2, §3, §4

[3] = molecular target: T3, human NaV1.2 channel (SCN2A, HEK293T cells) (Homo sapiens, UniProt Q99250); assay: as above; format: cell-based; settings: change vs vehicle DMSO at IC50 concentration (CBD 18.4 μM, CBGA 14.7 μM, CBDVA 60 μM)
T3 construct: expressed in transfected cells
Experimental: as §1, §2, §3, §4

[4] = molecular target: T4, human NaV1.1 channel (SCN1A, HEK293T cells) (Homo sapiens, UniProt P35498); assay: as above; format: cell-based; settings: change vs vehicle DMSO at IC50 concentration (CBD 18.5 μM, CBGA 13.6 μM, CBDVA 50 μM)
T4 construct: expressed in transfected cells
Experimental: as §1, §2, §3, §4

[5] = system: Scn1a+/− mouse model of DS; set-up: method as in Anderson et al., 2021b; settings: monotherapy, ref Anderson et al., 2021b; cited from earlier work
[6] = molecular target: T1, human NaV1.7 channel (SCN9A, CHO cells); assay: Planar patch-clamp, inhibition of peak sodium current (IC50 protocol); format: cell-based; settings: mean ± SEM
Experimental: as §1, §2
(§5) To determine half-maximal inhibitory concentrations (IC50), cells were held at −80 mV, stepped to −120 mV for 200 ms followed by 50 ms test depolarization to 0 mV every 2 s for 30 s in the presence of vehicle control (DMSO). The cells were then exposed to an individual phytocannabinoid (CBD, CBGA, CBDVA, CBG, CBCA or CBC) at concentrations between 0.1 and 100 μM, sequentially for 5 min. Currents for individual cells were averaged over 24 s periods directly before application and following a 5 min exposure of compound. Leak subtraction was applied before normalization of current amplitude. Normalized mean data were fit to the Hill equation.

[7] = molecular target: T3, human NaV1.2 channel (SCN2A, HEK293T cells); assay: as above; format: cell-based; settings: mean ± SEM
Experimental: as §1, §2, §5

[8] = molecular target: T4, human NaV1.1 channel (SCN1A, HEK293T cells); assay: as above; format: cell-based; settings: mean ± SEM
Experimental: as §1, §2, §5

T3 sequence (Q99250 whole entry): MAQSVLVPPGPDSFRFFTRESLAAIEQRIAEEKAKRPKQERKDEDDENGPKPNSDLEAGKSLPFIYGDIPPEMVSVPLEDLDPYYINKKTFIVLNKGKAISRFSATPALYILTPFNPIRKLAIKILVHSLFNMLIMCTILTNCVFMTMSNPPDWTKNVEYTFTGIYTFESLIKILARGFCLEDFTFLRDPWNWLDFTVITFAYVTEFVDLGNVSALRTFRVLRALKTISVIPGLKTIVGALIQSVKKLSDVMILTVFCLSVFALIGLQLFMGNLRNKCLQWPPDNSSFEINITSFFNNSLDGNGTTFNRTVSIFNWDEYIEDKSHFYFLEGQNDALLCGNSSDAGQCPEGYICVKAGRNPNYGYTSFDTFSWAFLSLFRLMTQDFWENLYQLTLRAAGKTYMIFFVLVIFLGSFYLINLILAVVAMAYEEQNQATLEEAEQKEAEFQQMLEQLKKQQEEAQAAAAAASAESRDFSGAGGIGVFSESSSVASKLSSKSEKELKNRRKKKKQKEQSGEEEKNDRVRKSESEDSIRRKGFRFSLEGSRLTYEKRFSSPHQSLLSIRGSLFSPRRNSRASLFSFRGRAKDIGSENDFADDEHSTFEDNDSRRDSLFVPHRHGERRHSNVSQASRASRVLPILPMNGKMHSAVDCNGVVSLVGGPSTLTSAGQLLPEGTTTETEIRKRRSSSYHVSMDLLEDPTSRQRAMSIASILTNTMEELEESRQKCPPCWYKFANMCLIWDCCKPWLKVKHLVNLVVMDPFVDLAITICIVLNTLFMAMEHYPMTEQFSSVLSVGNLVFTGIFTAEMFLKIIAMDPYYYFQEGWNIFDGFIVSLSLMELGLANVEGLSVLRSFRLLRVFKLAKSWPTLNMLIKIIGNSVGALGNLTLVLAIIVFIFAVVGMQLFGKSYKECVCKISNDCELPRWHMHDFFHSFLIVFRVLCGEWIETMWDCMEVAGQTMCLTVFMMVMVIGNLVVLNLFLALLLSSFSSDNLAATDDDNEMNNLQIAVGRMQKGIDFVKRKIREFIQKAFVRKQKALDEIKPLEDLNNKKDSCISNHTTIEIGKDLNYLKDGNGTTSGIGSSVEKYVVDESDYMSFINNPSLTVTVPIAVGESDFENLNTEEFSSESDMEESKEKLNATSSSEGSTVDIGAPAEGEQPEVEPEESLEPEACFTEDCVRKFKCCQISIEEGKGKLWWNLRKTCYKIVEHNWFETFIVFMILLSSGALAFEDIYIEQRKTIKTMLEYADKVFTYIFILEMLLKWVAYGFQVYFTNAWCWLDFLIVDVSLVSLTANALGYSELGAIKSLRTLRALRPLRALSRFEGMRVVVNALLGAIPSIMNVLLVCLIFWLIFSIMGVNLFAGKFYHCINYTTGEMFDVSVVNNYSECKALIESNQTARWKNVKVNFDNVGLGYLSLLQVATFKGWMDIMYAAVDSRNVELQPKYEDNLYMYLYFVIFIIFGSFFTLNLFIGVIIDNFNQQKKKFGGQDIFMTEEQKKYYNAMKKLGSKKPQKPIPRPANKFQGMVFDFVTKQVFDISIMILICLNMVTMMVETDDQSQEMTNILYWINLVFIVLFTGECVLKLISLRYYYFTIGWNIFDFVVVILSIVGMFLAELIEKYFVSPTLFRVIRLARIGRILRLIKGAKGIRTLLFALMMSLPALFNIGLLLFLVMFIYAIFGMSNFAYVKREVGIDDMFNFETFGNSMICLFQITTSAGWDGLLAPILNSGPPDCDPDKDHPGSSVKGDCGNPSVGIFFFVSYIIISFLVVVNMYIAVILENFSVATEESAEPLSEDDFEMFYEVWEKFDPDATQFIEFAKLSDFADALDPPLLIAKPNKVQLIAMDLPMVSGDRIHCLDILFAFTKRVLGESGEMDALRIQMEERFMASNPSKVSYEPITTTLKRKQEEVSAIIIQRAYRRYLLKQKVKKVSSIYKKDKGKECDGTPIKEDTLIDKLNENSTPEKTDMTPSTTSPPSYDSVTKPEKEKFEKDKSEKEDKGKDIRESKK
T1 sequence (Q15858 whole entry): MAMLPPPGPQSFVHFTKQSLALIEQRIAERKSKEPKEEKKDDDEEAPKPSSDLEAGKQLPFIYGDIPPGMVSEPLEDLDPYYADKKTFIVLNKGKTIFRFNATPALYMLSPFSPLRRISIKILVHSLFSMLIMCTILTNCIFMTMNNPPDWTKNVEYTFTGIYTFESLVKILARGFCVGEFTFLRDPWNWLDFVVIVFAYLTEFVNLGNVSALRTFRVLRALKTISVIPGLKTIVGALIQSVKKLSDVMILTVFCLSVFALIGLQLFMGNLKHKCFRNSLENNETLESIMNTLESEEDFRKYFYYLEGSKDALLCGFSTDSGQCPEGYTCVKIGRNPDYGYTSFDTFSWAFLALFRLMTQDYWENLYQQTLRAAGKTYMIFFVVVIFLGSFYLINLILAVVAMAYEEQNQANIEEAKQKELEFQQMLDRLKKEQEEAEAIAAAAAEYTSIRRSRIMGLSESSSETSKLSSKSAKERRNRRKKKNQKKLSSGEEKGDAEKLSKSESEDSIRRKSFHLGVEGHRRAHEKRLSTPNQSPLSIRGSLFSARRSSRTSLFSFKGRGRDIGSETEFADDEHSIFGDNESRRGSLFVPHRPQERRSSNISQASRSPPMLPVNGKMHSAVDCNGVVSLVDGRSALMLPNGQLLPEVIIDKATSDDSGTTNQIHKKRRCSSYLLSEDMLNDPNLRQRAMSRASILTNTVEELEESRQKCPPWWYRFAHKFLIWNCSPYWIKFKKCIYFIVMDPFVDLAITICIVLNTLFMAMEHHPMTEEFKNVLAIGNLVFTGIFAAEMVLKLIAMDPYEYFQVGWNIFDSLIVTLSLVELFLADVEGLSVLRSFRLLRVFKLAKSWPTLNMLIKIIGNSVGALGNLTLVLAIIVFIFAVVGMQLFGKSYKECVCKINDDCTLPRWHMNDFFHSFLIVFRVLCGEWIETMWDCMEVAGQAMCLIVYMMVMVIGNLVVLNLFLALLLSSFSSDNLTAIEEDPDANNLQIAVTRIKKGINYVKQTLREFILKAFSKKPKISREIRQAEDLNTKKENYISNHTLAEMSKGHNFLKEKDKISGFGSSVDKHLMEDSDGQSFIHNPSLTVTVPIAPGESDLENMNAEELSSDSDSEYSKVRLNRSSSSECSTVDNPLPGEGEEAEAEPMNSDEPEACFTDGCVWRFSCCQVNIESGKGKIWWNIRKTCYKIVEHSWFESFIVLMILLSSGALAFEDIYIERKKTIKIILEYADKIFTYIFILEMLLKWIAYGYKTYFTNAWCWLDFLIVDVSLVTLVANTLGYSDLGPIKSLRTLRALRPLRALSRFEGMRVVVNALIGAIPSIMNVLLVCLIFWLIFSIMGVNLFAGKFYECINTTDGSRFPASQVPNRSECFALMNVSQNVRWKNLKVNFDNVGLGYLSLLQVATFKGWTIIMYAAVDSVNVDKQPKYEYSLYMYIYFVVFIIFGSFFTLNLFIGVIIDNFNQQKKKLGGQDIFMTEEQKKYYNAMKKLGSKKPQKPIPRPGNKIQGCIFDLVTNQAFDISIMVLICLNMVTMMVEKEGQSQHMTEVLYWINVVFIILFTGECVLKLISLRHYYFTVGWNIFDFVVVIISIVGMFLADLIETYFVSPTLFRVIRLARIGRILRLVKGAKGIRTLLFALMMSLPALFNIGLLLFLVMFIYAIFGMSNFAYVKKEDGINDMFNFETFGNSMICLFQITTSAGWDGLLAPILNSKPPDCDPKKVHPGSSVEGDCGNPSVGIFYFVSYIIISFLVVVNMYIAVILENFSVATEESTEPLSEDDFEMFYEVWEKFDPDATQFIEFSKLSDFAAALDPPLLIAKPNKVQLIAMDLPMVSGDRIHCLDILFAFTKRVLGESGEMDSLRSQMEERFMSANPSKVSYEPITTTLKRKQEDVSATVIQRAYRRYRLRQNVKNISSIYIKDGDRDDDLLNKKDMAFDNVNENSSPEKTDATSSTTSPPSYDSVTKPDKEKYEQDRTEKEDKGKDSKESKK

Compound: CCCCCc1cc(O)c(C/C=C(\C)CCC=C(C)C)c(O)c1C(=O)O [CBGA, cannabigerolic acid]
- Inactivation △ V0.5 inact ([1]; SSFI): −5.5 ± 2.1* mV
- Inactivation △ slope factor ([1]; SSFI): 1.3 ± 0.5*
- Activation △ Slope factor [1]: 1.1 ± 0.2***
- Activation △ V0.5 act [1]: 4.6 ± 1.7* mV
- Inactivation △ τinact SSFI at 5 mV [1]: 0.3 ± 0.06***
- Inactivation △ V0.5 inact ([2]; SSFI): −0.5 ± 2.4 mV
- Inactivation △ slope factor ([2]; SSFI): 1.1 ± 0.2**
- Activation △ Slope factor [2]: −0.4 ± 0.3
- Activation △ V0.5 act [2]: 0.1 ± 1.6 mV
- Inactivation △ τinact SSFI at 5 mV [2]: 0.2 ± 0.2
- Inactivation △ V0.5 inact ([3]; SSFI): −3.0 ± 1.5 mV
- Inactivation △ slope factor ([3]; SSFI): 2.5 ± 0.8**
- Activation △ Slope factor [3]: 1.9 ± 1.0
- Activation △ V0.5 act [3]: 1.8 ± 2.3 mV
- Inactivation △ τinact SSFI at 5 mV [3]: 0.08 ± 0.1
- Inactivation △ V0.5 inact ([4]; SSFI): 1.0 ± 1.29 mV
- Activation △ Slope factor [4]: 3.1 ± 1.7
- Activation △ V0.5 act [4]: 3.9 ± 1.2** mV
- Inactivation △ τinact SSFI at 5 mV [4]: 0.4 ± 0.1*
- Effect on spontaneous seizures [5]: proconvulsive effects
- Slope (Hill slope coefficient) ([6]; NaV1.7 concentration-response): 2.5 ± 0.4
- IC50 ([6]; NaV1.7 peak current, 0.1–100 µM, 5 min exposure): 16.4 ± 1.1 µM
- Slope (Hill slope coefficient) ([7]; NaV1.2 concentration-response): 2.2 ± 0.4
- IC50 ([7]; NaV1.2 peak current, 0.1–100 µM, 5 min exposure): 14.7 ± 1.1 µM
- Slope (Hill slope coefficient) ([8]; NaV1.1 concentration-response): 2.6 ± 0.5
- IC50 ([8]; NaV1.1 peak current, 0.1–100 µM, 5 min exposure): 13.6 ± 1.1 µM
